Results as given in ChEMBL document CHEMBL5154921, “Discovery and Characterization of the First Nonpeptide Antagonists for the Relaxin-3/RXFP3 System” (J Med Chem, 2022).
Calls of active or inactive are those of the source. The calls are words filed in the database; no cut-off is given here.

What was measured:
Type in all cases: functional, cell-based
[1] = biological target: T1, Relaxin-3 receptor 1 (Homo sapiens, UniProt Q9NSD7); assay: Antagonist activity at human RXFP3 expressed in CHO-K1 cells assessed as forskolin-induced cAMP accumulation measured after 30 mins in presence of relaxin-3 by TR-FRET assay
T1 sequence (Q9NSD7 whole entry): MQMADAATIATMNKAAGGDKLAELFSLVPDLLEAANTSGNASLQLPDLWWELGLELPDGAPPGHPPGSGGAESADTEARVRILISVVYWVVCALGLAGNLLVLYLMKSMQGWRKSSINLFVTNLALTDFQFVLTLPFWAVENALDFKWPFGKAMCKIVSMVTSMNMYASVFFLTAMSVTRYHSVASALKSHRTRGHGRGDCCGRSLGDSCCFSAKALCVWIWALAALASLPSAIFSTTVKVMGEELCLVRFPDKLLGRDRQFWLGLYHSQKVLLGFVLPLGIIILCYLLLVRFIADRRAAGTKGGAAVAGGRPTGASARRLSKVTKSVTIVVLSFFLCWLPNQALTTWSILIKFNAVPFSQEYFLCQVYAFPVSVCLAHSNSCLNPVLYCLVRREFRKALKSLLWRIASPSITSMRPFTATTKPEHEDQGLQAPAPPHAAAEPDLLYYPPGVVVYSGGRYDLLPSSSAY

[2] = biological target: T1, Relaxin-3 receptor 1; assay: Antagonist activity at human RXFP3 expressed in CHO-K1 cells assessed as [35S]GTPgammaS binding incubated for 1 hr by [35S]GTP-gammaS binding assay
[3] = biological target: Relaxin receptor 1 (Homo sapiens) (UniProt Q9HBX9); assay: Antagonist activity at human RXFP1 receptor expressed in CHO-K1 cells assessed as cAMP production at 10 to 30 uM in presence of relaxin-3 incubated for 30 mins by TR-FRET assay; conditions: filed as antagonist, dose 10-30 µM
Chain of Relaxin receptor 1 (Homo sapiens) (Q9HBX9 whole entry): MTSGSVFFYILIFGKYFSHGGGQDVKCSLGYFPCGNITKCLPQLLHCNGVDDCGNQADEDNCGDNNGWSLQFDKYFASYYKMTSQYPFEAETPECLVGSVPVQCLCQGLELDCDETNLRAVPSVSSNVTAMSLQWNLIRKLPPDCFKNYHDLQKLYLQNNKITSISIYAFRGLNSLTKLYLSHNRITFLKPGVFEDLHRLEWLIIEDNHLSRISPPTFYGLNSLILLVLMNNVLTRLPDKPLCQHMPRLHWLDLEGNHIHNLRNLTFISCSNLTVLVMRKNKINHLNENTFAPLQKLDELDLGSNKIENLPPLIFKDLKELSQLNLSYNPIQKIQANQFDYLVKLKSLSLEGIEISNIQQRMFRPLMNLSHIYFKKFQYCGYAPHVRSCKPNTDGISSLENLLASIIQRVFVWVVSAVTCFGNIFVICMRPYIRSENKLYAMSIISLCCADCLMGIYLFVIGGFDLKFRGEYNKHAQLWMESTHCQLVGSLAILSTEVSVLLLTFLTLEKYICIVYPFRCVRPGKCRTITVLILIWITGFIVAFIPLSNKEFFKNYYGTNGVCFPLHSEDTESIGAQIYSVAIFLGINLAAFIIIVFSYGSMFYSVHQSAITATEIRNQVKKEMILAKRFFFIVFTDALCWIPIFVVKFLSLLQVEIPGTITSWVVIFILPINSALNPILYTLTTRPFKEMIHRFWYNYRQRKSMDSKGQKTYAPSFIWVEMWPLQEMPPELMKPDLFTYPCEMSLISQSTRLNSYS

IC50 [1] [µM]	IC50 [2] [µM]	Activity [3]	SMILES
> 10	–	–	Cc1ccc(-c2noc(-c3ccc(NC(=O)C4CC(=O)N(Cc5ccccn5)C4)cc3)n2)cc1 (stereo not given)
> 10	–	–	Cc1ccc(-c2noc(-c3ccc(NC(=O)C4CC(=O)N(CCc5ccccc5)C4)cc3)n2)cc1 (stereo not given)
> 10	–	–	Cc1ccc(-c2noc(-c3ccc(NC(=O)C4CC(=O)N(Cc5cccc(F)c5)C4)cc3)n2)cc1 (stereo not given)
–	3.04	Active	O=C(Nc1ccc(-c2nc(-c3ccc(Cl)cc3)no2)cc1)C1CC(=O)N(Cc2cccnc2)C1 (stereo not given)
